Measurements from patent US20120277257A1, “Methods of Treating Diseases, Pharmaceutical Compositions, and Pharmaceutical Dosage Forms” (MYREXIS, INC., priority 2009, published 2012).
Read-outs that look alike come from different tables or passages of the source.

How the values were obtained:
[1] = Phase I clinical trial, human plasma pharmacokinetics of oral Compound 1; assay type: in vivo; conditions: human, plasma, po; for Vd/F: read-out: Vz/F
Method: A human clinical study was initiated at a starting dose of 50 mg/m^2. Subjects had recurrent cancer refractory to available systemic therapy. Compound 1 was administered daily by mouth in tablet form for 21 consecutive days in a 28 day cycle to each enrolled subject. […] Plasma was collected pre-dose only for cycle 1 day 8. […] Patients were men and women with metastatic cancer, ranged in age from 45 to 85 years, and received doses ranging from 50 mg/m^2 to 340 mg/m^2, with a total daily dose of 100-740 mg (Tables 2A and 2B).

[2] = tested on: NCI-N87 Her2+ gastric cancer; experiment: NCI-N87 (Her2+) gastric cancer xenograft in athymic nude mice; assay type: in vivo
Method: The efficacy of Compound 1 was compared to that of SNX-5422 (Serenex, Pfizer, Inc.) on the growth of NCI-N87 (Her2+) human gastric cancer cells as a xenograft in athymic nude mice model. Animals were dosed with either 200 mg/kg of Compound 1 on days 1 through 21 or 40 mg/kg of SNX-5422 thrice weekly for three weeks. Tumor volumes and body weights were determined from Days 1 to 39.
Five million NCI-N87 cells were implanted subcutaneously in the right flank of female nude mice (Hsd:athymic nude-Foxn1^nu). When the median tumor volume was approximately 123 mm^3, mice were randomized into three cohorts of ten animals. One cohort was dosed orally with vehicle, one cohort was dosed orally with Compound 1 (200 mg/kg) formulated in vehicle, and one cohort was dosed orally with SNX-5422 (40 mg/kg) formulated in dimethylacetamide/polyethylene glycol 300. Vehicle and Compound 1 were administered on days 1-21 and SNX-5422 was administered thrice weekly on Days 1, 3, 5, 8, 10, 12, 15, 17 and 19. The mice were observed daily for mortality and signs of toxicity.
Xenografted mice bearing N-87 tumors (median volume ˜125 mm^3) were dosed orally with Compound 1 for three weeks with the dosing schedules indicated in FIG. 4.
Additionally, xenografted mice bearing N-87 tumors (median volume ˜115 mm^3) were dosed orally with Compound 1 for twenty-one days at 200 mg/kg, once daily or 100 mg/kg, twice-daily as indicated in FIG. 5. Tumor growth inhibition (TGI) was monitored up to Day 39.

[3] = tested on: Hsp70 protein levels in PBMCs; experiment: Hsp70 protein levels in PBMCs of patients (ELISA); assay type: in vivo, human; conditions: 8 hours after the first dose, sustained on day 8 and day 22
Method: A human clinical study was initiated at a starting dose of 50 mg/m^2. Subjects had recurrent cancer refractory to available systemic therapy. […] For determination of drug levels in humans, plasma was collected prior to drug administration and 0.5, 1, 2, 3, 4, 6, 8, and 24 hours post-dosing on cycle 1 day 1, and cycle 1 day 21. Plasma was collected pre-dose only for cycle 1 day 8.
Hsp70 protein levels were determined by an ELISA with a Hsp 70 ELISA kit (catalog #EKS-700B, Assay Designs, Stressgen, Ann Arbor, Mich.) as per the manufacturer's protocol.

[4] = 100 mg/m^2, Day 21, Cohort 2, 100 mg/m^2 (160 mg), oral daily
[5] = 100 mg/m^2, Day 21, Cohort 2, Subject 201, 100 mg/m^2 (160 mg), oral daily
[6] = 165 mg/m^2, Day 01, Cohort 3, Subject 301, 165 mg/m^2 (300 mg), oral daily
[7] = 165 mg/m^2, Day 21, Cohort 3, 165 mg/m^2 (300 mg), oral daily
[8] = 165 mg/m^2, Day 21, Cohort 3, Subject 301, 165 mg/m^2 (300 mg), oral daily
[9] = 245 mg/m^2, Day 01, Cohort 4, N = 6, 245 mg/m^2 (340-540 mg), oral daily
[10] = 340 mg/m^2, Day 01, Cohort 5, 340 mg/m^2 (480-620 mg), oral daily
[11] = 340 mg/m^2, Day 01, Cohort 5, N = 2, 340 mg/m^2 (480-620 mg), oral daily
[12] = 340 mg/m^2, Day 21, Cohort 5 (BID), Subject 508, 340 mg/m^2 (330 mg), oral twice daily
[13] = 340 mg/m^2, Day 21, Cohort 5, 340 mg/m^2 (620 mg), oral daily
[14] = 340 mg/m^2, Day 21, Cohort 5, Subject 503, 340 mg/m^2 (620 mg), oral daily
[15] = Day 21, Cohort 4, 176-245 mg/m^2 (340-540 mg), oral daily

C[C@H](O)C(=O)N1CCC(CCn2c(Sc3cc4c(cc3Br)OCO4)nc3c(N)ncnc32)CC1 [Compound 1, (2S)-1-[4-(2-{6-amino-8-[(6-bromo-1,3-benzodioxol-5-yl)thio]-9H-purin-9-yl}ethyl)piperidin-1-yl]-1-oxopropan-2-ol]
AUC(0-inf) [1, 4]: 67.3 µg·h/mL | AUC(0-t) ([1]; 100 mg/m^2, Day 21, Cohort 2, 100 mg/m^2 (160 mg), oral daily, read-out: AUC(0-24)): 49.8 µg·h/mL | Vd/F [1, 4]: 52 L | Cmax [1, 5]: 3180 ng/mL | Tmax [1, 5]: 6 h | half-life [1, 5]: 11.2 h | Cmax [1, 6]: 6870 ng/mL | Tmax [1, 6]: 4 h | half-life [1, 6]: 11.5 h | AUC(0-inf) [1, 7]: 308 µg·h/mL | AUC(0-t) ([1]; 165 mg/m^2, Day 21, Cohort 3, 165 mg/m^2 (300 mg), oral daily, read-out: AUC(0-24)): 200 µg·h/mL | Vd/F [1, 7]: 30.4 L | Cmax [1, 8]: 11800 ng/mL | Tmax [1, 8]: 8 h | half-life [1, 8]: 14 h | AUC(0-inf) ([1]; 240 mg, Day 01, Cohort 6 (BID), 240 mg, oral twice daily, based on a single 12-hour dosing interval): 55 µg·h/mL | AUC(0-t) ([1]; 240 mg, Day 01, Cohort 6 (BID), 240 mg, oral twice daily, read-out: AUC(0-12)): 38.2 µg·h/mL | Vd/F ([1]; 240 mg, Day 01, Cohort 6 (BID), 240 mg, oral twice daily): 39.6 L | AUC(0-inf) ([1]; 240 mg, Day 21, Cohort 6 (BID), 240 mg, oral twice daily, based on a single 12-hour dosing interval): 95.1 µg·h/mL | AUC(0-t) ([1]; 240 mg, Day 21, Cohort 6 (BID), 240 mg, oral twice daily, read-out: AUC(0-12)): 67.6 µg·h/mL | Vd/F ([1]; 240 mg, Day 21, Cohort 6 (BID), 240 mg, oral twice daily): 34.6 L | Cmax [1, 9]: 7840 ng/mL | Tmax [1, 9]: 2.5 h | half-life [1, 9]: 10.8 h | AUC(0-inf) ([1]; 340 mg/m^2, Day 01, Cohort 5 (BID), 340 mg/m^2 (270-370 mg), oral twice daily, based on a single 12-hour dosing interval): 107 µg·h/mL | AUC(0-t) ([1]; 340 mg/m^2, Day 01, Cohort 5 (BID), 340 mg/m^2 (270-370 mg), oral twice daily, read-out: AUC(0-12)): 62.1 µg·h/mL | Vd/F ([1]; 340 mg/m^2, Day 01, Cohort 5 (BID), 340 mg/m^2 (270-370 mg), oral twice daily): 28.4 L | AUC(0-inf) [1, 10]: 334 µg·h/mL | AUC(0-t) ([1]; 340 mg/m^2, Day 01, Cohort 5, 340 mg/m^2 (480-620 mg), oral daily, read-out: AUC(0-24)): 233 µg·h/mL | Vd/F [1, 10]: 51.4 L | Cmax [1, 11]: 16300 ng/mL | Tmax [1, 11]: 3 h | half-life [1, 11]: 14.1 h | AUC(0-inf) ([1]; 340 mg/m^2, Day 21, Cohort 5 (BID), 340 mg/m^2 (330 mg), oral twice daily, based on a single 12-hour dosing interval): 96.3 µg·h/mL | AUC(0-t) ([1]; 340 mg/m^2, Day 21, Cohort 5 (BID), 340 mg/m^2 (330 mg), oral twice daily, read-out: AUC(0-12)): 69.5 µg·h/mL | Vd/F ([1]; 340 mg/m^2, Day 21, Cohort 5 (BID), 340 mg/m^2 (330 mg), oral twice daily): 45.7 L | Cmax [1, 12]: 11000 ng/mL | Tmax [1, 12]: 1 h | half-life [1, 12]: 6.7 h | AUC(0-inf) [1, 13]: 610 µg·h/mL | AUC(0-t) ([1]; 340 mg/m^2, Day 21, Cohort 5, 340 mg/m^2 (620 mg), oral daily, read-out: AUC(0-24)): 363 µg·h/mL | Vd/F [1, 13]: 36.8 L | Cmax [1, 14]: 25600 ng/mL | Tmax [1, 14]: 1 h | half-life [1, 14]: 19.3 h | AUC(0-inf) [1, 15]: 202 µg·h/mL | AUC(0-t) ([1]; Day 21, Cohort 4, 176-245 mg/m^2 (340-540 mg), oral daily, read-out: AUC(0-24)): 127 µg·h/mL | Vd/F [1, 15]: 77.9 L | tumor regression ([2]; 200 mg/kg oral, 5-days-on/2-days-off, after 3 cycles): 44% regression after 3 cycles | tumor regression ([2]; 200 mg/kg oral, QOD (once every-other-day) for three weeks, Day 21): 7% | tumor regression ([2]; 200 mg/kg oral, daily for 21 days, Day 21 (dosing schedule study)): 40% | decrease in median tumor volume ([2]; 200 mg/kg oral, days 1-21, by day 21): 40% | TGI (tumor growth inhibition) ([2]; 200 mg/kg oral, twice weekly for three weeks, Day 21): 100% | TGI (tumor growth inhibition) ([2]; 200 mg/kg oral, weekly (Days 1, 8, 15), Day 21, p = 0.1): 54% TGI (p = 0.1) Day 21 | TGI (tumor growth inhibition) ([2]; 400 mg/kg oral, twice weekly for three weeks, Day 21): 95% | tumor growth inhibition compared with SNX-5422 ([2]; Compound 1 200 mg/kg daily vs SNX-5422 40 mg/kg thrice weekly): as effective as SNX-5422 | Hsp70 levels in protein extracts derived from PBMCs [3]: showed an increase
